Counter-ions that a name gives are not always drawn.

Our source for the IC50 and Ki values is patent US11365185B2, “Lysophosphatidic acid receptor 1 (LPAR1) inhibitor compounds” (Eli Lilly and Company, priority 2017, dated 2022).

One test addresses human LPAR3 (Homo sapiens (Human), UniProt Q9UBY5). Description: LPAR3 Calcium Flux Assay. The test is classed as cell-based. The note with it: U2OS cells overexpressing human LPAR3, LPA-stimulated calcium, FLIPR. The method, then:
LPAR3 Calcium Flux Assays
A cDNA encoding the human LPAR3 receptor is synthesized and cloned into pDNA3 expression plasmid. The plasmid is transfected in U2OS cells using Lipofectamine 2000 (Invitrogen Corp., USA). Clones stably expressing human LPAR3 are selected using neomycin and identified as cells that show Ca-influx in response to LPA.
U2OS cells overexpressing human LPAR3 are seeded at 20,000-40,000 cells per well in a 96-well poly-D-lysine coated plate one day before the assay. Prior to the assay, the cells are washed once with assay buffer (HBSS containing 20 mM HEPES and 0.2% BSA) and then incubated in 50 μl of assay buffer for 60 minutes. Then 50 μl of a calcium indicator dye (Fluo-4 NW, Molecular Probes) are added to each well and incubation is continued for 30 minutes at 37° C. and then 30 minutes at room temperature. 50 μl of test compounds in 4% DMSO are added to the cells and incubation continued at room temperature for 40 minutes. Cells are stimulated by the addition of 50 μl of 128 nM LPA and intracellular calcium is measured using the FLIPR TETRA (Molecular Devices). IC50 values are determined using “Genedata Screener” analysis tool.
On the technique in general: A change in cytosolic calcium serves as a functional read-out for many receptors and channels.

For test [1], the system named is Human hepatic stellate cell line LX-2. Description: Calcium Influx of Human Hepatic Stellate Cells (LX-2). The test is classed as cell-based. The note with it: LX-2 cells, LPA-stimulated calcium influx. The method, then: Calcium Influx of Human Hepatic Stellate Cells (LX-2)
Human hepatic stellate cell line LX-2 is purchased from EMD Millpore. LX-2 cells are seeded at 20,000-40,000 cells per well in a 96-well poly-D-lysine coated plate one day before the assay. Prior to the assay, the cells are washed once with assay buffer (HBSS containing 20 mM HEPES and 0.2% BSA) and then incubated in 50 μl of assay buffer for 60 minutes. Then 50 μl of a calcium indicator dye (Fluo-4 NW, Molecular Probes) are added to each well and incubation is continued for 30 minutes at 37° C. and then 30 minutes at room temperature. 50 μl of test compounds in 4% DMSO are added to the cells and incubation is continued at room temperature for 40 minutes. Cells are stimulated by the addition of 50 μl of 128 nM LPA and intracellular calcium is measured using the FLIPR TETRA (Molecular Devices). IC50 values are determined using “Genedata Screener” analysis tool.

In test [2] the target is T1, LPAR1 (Homo sapiens (Human), UniProt Q92633). Description: LPAR1 Calcium Flux Assay. The test is classed as cell-based. The note with it: U937 cells overexpressing human LPAR1, LPA-stimulated calcium, FLIPR. The protocol: LPAR1 Calcium Flux Assays
A cDNA encoding the human LPAR1 receptor is synthesized and cloned into pDNA3 expression plasmid. The plasmid is transfected in U937 cells using Lipofectamine 2000 (Invitrogen Corp., USA). Clones stably expressing human LPAR1 are selected using puromycin and identified as cells that show Ca-influx in response to LPA.
U937 cells overexpressing human LPAR1 are seeded at 100,000 cells per well in a 96-well fibronectin (10 ug/ml) coated plate in 60 μl of assay buffer (HBSS containing 20 mM HEPES and 0.2% BSA) and then incubated for 60 minutes. Then 50 μl of a calcium indicator dye (Fluo-4 NW, Molecular Probes) are added to each well and incubation continued for 30 minutes at 37° C. and then 30 minutes at room temperature. 50 μl of test compounds in 4% DMSO are added to the cells and incubation continued at room temperature for 40 minutes. Cells are the stimulated by the addition of 50 μl of 128 nM LPA and intracellular calcium is measured using the FLIPR TETRA (Molecular Devices). IC50 values are determined using “Genedata Screener” analysis tool.
Target sequence in this assay (Q92633 whole entry): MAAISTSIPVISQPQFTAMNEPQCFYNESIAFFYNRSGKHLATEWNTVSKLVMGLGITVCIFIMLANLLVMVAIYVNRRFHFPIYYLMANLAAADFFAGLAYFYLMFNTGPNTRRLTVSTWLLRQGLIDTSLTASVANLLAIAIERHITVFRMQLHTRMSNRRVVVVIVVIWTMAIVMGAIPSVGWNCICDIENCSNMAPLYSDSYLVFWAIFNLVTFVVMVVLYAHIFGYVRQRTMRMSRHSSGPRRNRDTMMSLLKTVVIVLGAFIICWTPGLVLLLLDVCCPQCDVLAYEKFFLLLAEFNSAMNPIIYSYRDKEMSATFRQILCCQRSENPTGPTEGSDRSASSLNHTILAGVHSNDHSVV

Test [3] addresses T1, LPAR1. The experiment in a line: LPAR1 Membrane Binding Assay. The note with it: membrane containing LPAR1, radio labeled ligand, SPA. The protocol: LPAR1 Membrane Binding Assay
The ability of a compound to inhibit binding of a ligand (1-(4′-(4-(((benzyloxy)carbonyl)amino)-3-methylisoxazol-5-yl)-[1,1′-biphenyl]-4-yl)cyclopropane-1-carboxylic acid) to LPAR1 is assessed via a membrane binding assay. Membrane containing LPAR1 was purchased from Cerep (Cat. No. 290312RB). Prior to the assay, membrane is thawed and homogenized for 15 seconds. 50 μl of test compounds and 50 μl of radio labeled ligand are added to the 96-well plates and then 50 of μl membrane (50-400 ug/ml) are added. Next, 50 μl of SPA PVT WGA beads are added (1-5 mg/ml) and the plates are sealed and incubated at room temperate for 5 minutes. Radio activity is measured by Beta Counter and IC50 values are determined using “Genedata Screener” analysis tool.
Target sequence in this assay (Q92633 whole entry, species assumed): as the sequence (Q92633 whole entry) above

human LPAR3, sequence (Q9UBY5 whole entry): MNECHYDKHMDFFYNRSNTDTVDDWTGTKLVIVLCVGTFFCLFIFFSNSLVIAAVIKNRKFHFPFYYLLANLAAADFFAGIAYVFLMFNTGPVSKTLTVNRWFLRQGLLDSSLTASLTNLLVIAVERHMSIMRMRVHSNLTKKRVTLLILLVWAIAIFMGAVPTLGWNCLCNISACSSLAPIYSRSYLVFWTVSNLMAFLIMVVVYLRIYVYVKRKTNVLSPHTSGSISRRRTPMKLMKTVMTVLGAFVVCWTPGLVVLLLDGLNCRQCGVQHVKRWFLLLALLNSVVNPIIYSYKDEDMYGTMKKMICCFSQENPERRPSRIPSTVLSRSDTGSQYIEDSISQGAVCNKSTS

One may read the IC50 as the concentration at which inhibition is half-maximal. With `Cn1ncc(-c2ccc(-c3ccc(C4(C(=O)O)CC4)cc3)cn2)c1Nc1cncc(OC(C)(C)C)n1` [Example 1, 1-[4-[6-[5-[(6-tert-butoxypyrazin-2-yl)amino]-1-methyl-pyrazol-4-yl]-3-pyridyl]phenyl]cyclopropanecarboxylic Acid], the IC50 worked out at 1330 nM at human LPAR3, 37.2 nM in test [1] and 74.4 nM at LPAR1 [2].
The matching figures for `Cn1ncc(-c2ccc(-c3ccc(C4(C(=O)O)CC4)cc3)cn2)c1Nc1cncc(OC2CCC2)n1` [Example 2, 1-[4-[6-[5-[[6-(cyclobutoxy)pyrazin-2-yl]amino]-1-methyl-pyrazol-4-yl]-3-pyridyl]phenyl]cyclopropanecarboxylic Acid]: 327 nM, 9.22 nM and 17.2 nM.
The Ki is the equilibrium dissociation constant of an inhibitor or competing ligand from its target. Low readings indicate tighter binding, high ones weaker binding. As for `Cn1ncc(-c2ncc(-c3ccc(C4(C(=O)O)CC4)cc3)cc2F)c1Nc1cncc(OC2CC2)n1` [Example 3, 1-[4-[6-[5-[[6-(cyclopropoxy)pyrazin-2-yl]amino]-1-methyl-pyrazol-4-yl]-5-fluoro-3-pyridyl]phenyl]cyclopropanecarboxylic Acid; Hydrochloride], the results for the IC50 (on human LPAR3; in test [1]; at LPAR1 [2]) were 2480 nM, 3.8 nM and 8.61 nM, respectively. On LPAR1 [3], this compound displayed a Ki of 44.2 nM.
Turning to `Cn1ncc(-c2ncc(-c3ccc(C4(C(=O)O)CC4)cc3)cc2F)c1Nc1cncc(C(C)(C)F)n1` [Example 4, 1-[4-[5-fluoro-6-[5-[[6-(1-fluoro-1-methyl-ethyl)pyrazin-2-yl]amino]-1-methyl-pyrazol-4-yl]-3-pyridyl]phenyl]cyclopropanecarboxylic Acid Hydrochloride], the IC50 at human LPAR3 worked out at 1590 nM; in test [1] it was 8.67 nM; at LPAR1 [2], 16.7 nM. The same compound displayed an inhibitory constant (Ki) at LPAR1 [3] of 80.5 nM.
On the same counts, the results for `Cn1ncc(-c2ccc(-c3ccc(C4(C(=O)O)CC4)cc3)cn2)c1Nc1cncc(OC2CC(F)(F)C2)n1` [Example 5, 1-[4-[6-[5-[[6-(3,3-difluorocyclobutoxy)pyrazin-2-yl]amino]-1-methyl-pyrazol-4-yl]-3-pyridyl]phenyl]cyclopropanecarboxylic Acid] are 49.6 nM, 17.1 nM, 26.9 nM and 51.4 nM.
`Cn1ncc(-c2ccc(-c3ccc(C4(C(=O)O)CC4)c(C(F)(F)F)c3)cn2)c1Nc1cncc(OC2CC2)n1` [Example 8, 1-[4-[6-[5-[[6-(cyclopropoxy)pyrazin-2-yl]amino]-1-methyl-pyrazol-4-yl]-3-pyridyl]-2-(trifluoromethyl)phenyl]cyclopropanecarboxylic Acid; Hydrochloride]: the half-inhibitory concentration (IC50) in test [1] is 7.13 nM.
`Cn1ncc(-c2ccc(-c3ccc(C4(C(=O)O)CC4)c(C#N)c3)cn2)c1Nc1cncc(OC2CC2)n1` [Example 9, 1-[2-cyano-4-[6-[5-[[6-(cyclopropoxy)pyrazin-2-yl]amino]-1-methyl-pyrazol-4-yl]-3-pyridyl]phenyl]cyclopropanecarboxylic Acid; Hydrochloride]: the IC50 on human LPAR3 is more than 10000 nM; in test [1] it was 10.5 nM; on LPAR1 [2], 17.9 nM.
The matching figures for `COCc1cc(C2(C(=O)O)CC2)ccc1-c1ccc(-c2cnn(C)c2Nc2cncc(C(C)C)n2)nc1` [Example 14, 1-[4-[6-[5-[(6-isopropylpyrazin-2-yl)amino]-1-methyl-pyrazol-4-yl]-3-pyridyl]-3-(methoxymethyl)phenyl]cyclopropanecarboxylic Acid; Hydrochloride]: more than 10000 nM, 13.2 nM and 45.8 nM.
The matching figures for `CC(C)c1cncc(Nc2c(-c3cnc(-c4ccc(C5(C(=O)O)CC5)cc4)cn3)cnn2C)n1` [Example 19, 1-[4-[5-[5-[(6-isopropylpyrazin-2-yl)amino]-1-methyl-pyrazol-4-yl]pyrazin-2-yl]phenyl]cyclopropanecarboxylic Acid; Hydrochloride]: 2400 nM, 16.3 nM and 88.1 nM.
